Experimental data from ChEMBL document CHEMBL1201862, “PubChem BioAssay data set” (2004).
The source made the active and inactive calls.

Legend:
cells [1] = assay type: functional, cell-based
cells [2] = assay type: functional, cell-based; remark: listed apart in the source
[3] = blockers of HIV-1 ZM109 envelope-driven cell-cell fusion – HeLa effector, CEM target cells, luciferase, cherry-pick, dose response (AID 652058); assay type: functional, cell-based;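 note: luciferase signal from HIV-1 Env mediated cell-cell fusion of effector and target cells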
[4] = blockers of HIV-1 envelope-mediated cell-cell fusion – cherry-pick, dose response (AID 652057); assay type: functional, cell-based
[5] = off-target signal loss in HeLa-CEM21 co-culture – HeLa F-luc CTL cells, cherry-picked, counter-screen for HIV-1 Env fusion inhibitor project, dose response (AID 652040); assay type: functional, cell-based;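 note: potency for signal decrease marking cytotoxic or nonspecific inhibition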
[6] = molecular target: T1, Ubiquitin-conjugating enzyme E2 N (Homo sapiens, UniProt P61088); assay type: functional;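 note: Dose-response confirmation in a TR-FRET assay detecting UBC13-driven polyubiquitin chain formation, inhibition measured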
T1 sequence (P61088 whole entry): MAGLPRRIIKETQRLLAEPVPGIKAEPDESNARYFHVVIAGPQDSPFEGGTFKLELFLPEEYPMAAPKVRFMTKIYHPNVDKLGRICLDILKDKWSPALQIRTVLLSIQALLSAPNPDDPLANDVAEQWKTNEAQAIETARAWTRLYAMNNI

[7] = Luminescence Cell-Based Dose Response HTS to Identify Inhibitors of 5'UTR Stem-Loop Driven Prion Protein mRNA Translation in H4 Neuroglioblastoma Cells. [Related pubchem assays: 1827 (Project Summary), 1813 (Primary HTS)]; assay type: functional
[8] = luciferase reporter signal suppression in cells – H4 neuroglioma cells, luminescence, dose response (AID 1990); assay type: functional, cell-based
[9] = alpha-synuclein stem-loop luciferase translation blockers – H4 neuroglioma cells, luminescence, confirmation (AID 1988); assay type: functional, cell-based
[10] = Luminescence Cell-Based Dose Response HTS to Identify Activators of Luciferase Translation or Activity in H4 […] Cells. [Related pubchem assays: 1829 (Project Summary), 1814 (Primary HTS)]; assay type: functional
H4 = assay: Luminescence Cell-Based Dose Response HTS to Identify Activators of 5'UTR Stem-Loop Driven Prion Protein mRNA Translation in H4 Neuroglioblastoma Cells. [Related pubchem assays: 1829 (Project Summary), 1814 (Primary HTS)]; assay type: functional; conditions: Homo sapiens
[11] = Luminescence Cell-Based Dose Confirmation HTS to Identify Activators of 5'UTR Stem-Loop Driven Alpha-Synuclein mRNA Translation in H4 Neuroglioblastoma Cells. [Related pubchem assays: 1829 (Project Summary), 1814 (Primary HTS)]; assay type: functional
[12] = molecular target: Induced myeloid leukemia cell differentiation protein Mcl-1 (Homo sapiens, UniProt Q07820); assay type: functional
Genome polyprotein = Genome polyprotein (dengue virus type 2, UniProt P29990); assay: flavivirus cap methylation enzyme inhibition – biochemical, confirmation dose response, primary screen (AID 588689); assay type: functional
[13] = molecular target: T2, Replicative DNA helicase DnaB (Mycobacterium tuberculosis, UniProt P9WMR3); assay: DnaB intein splicing inhibitors, dose response, biochemical, cell-free fluorescence (AID 449749); assay type: functional
T2 sequence (P9WMR3 whole entry): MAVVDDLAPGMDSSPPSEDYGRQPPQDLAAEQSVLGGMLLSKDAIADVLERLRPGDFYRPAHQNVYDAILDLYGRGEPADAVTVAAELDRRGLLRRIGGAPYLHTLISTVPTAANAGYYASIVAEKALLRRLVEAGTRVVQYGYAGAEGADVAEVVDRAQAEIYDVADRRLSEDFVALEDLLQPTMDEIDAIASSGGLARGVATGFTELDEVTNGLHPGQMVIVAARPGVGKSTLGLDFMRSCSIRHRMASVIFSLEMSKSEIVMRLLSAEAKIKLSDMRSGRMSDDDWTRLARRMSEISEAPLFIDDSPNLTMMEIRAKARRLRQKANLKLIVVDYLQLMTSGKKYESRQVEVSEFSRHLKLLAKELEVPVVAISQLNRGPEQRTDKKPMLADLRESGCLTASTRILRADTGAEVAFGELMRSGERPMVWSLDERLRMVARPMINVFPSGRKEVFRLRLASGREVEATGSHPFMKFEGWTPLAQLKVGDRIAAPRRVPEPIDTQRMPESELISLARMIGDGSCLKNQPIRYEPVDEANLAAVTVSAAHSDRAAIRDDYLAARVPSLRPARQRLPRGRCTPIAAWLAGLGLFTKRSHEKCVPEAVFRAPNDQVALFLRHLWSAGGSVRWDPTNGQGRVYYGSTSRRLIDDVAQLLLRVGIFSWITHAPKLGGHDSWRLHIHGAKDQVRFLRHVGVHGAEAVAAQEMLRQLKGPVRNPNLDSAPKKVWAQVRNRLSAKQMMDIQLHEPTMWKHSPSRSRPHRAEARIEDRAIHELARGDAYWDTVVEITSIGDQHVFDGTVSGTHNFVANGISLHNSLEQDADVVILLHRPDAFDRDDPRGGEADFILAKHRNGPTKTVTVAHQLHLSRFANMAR

Protein RecA = molecular target: T3, Protein RecA (Mycobacterium tuberculosis, UniProt P9WHJ3); assay: Fluorescence Cell-Free Homogeneous Dose Retest to Identify Inhibitors of RecA-Intein Splicing Activity. [Related pubchem assays (depositor defined):AID2097, AID2223, AID489010, AID492950]; assay type: functional
T3 sequence (P9WHJ3 whole entry): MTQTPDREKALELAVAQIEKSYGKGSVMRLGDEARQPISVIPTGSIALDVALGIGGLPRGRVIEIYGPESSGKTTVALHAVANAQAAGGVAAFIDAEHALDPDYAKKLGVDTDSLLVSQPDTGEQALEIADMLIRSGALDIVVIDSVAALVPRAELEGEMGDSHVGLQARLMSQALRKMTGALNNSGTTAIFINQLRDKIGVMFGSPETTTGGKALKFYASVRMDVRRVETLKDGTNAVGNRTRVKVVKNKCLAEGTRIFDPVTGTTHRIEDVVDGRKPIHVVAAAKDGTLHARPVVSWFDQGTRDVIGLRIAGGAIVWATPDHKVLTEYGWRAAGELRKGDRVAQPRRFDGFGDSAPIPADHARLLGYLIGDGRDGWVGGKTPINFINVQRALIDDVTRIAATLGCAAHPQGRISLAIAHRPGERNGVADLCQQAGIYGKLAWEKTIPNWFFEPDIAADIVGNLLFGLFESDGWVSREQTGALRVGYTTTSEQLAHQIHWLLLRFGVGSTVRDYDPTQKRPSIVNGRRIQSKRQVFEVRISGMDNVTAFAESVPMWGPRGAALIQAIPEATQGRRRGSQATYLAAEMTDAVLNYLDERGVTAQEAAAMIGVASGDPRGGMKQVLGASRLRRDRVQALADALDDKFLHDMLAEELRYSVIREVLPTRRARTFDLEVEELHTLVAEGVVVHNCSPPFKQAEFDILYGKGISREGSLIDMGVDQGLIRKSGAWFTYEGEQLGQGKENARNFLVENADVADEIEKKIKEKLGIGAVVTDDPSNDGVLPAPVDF

[14] = HIV-1 AD8 envelope cell-cell fusion blockers – cherry-pick, dose response (AID 652062); assay type: functional, cell-based;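 note: luciferase signal from cell-cell fusion driven by HIV-1 clade B AD8 Env; potency is for inhibitors of fusion seen as a drop in luminescence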
Fatty acid synthase [15] = molecular target: T4, Fatty acid synthase (Homo sapiens, UniProt P49327); assay: inhibition of human FAS-TE enzyme activity – biochemical, endpoint fluorescence intensity, uHTS hits, dose response (AID 624327); assay type: functional;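 note: fluorescence from hydrolysis of an O-methyl fluorescein acyl ester substrate by the enzyme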
Fatty acid synthase [16] = molecular target: T4, Fatty acid synthase; assay: inhibition of human FAS-TE enzyme activity – biochemical, kinetic fluorescence intensity, dose response (AID 624326); assay type: functional;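 note: rate of fluorescence rise from hydrolysis of a fluorogenic O-methyl fluorescein ester substrate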
[17] = Trypanosoma cruzi growth suppression in host cells – NIH3T3 host cells, beta-gal luminescence, confirmation (AID 2044); assay type: functional, cell-based;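 note: intracellular parasites grown in NIH/3T3 mouse fibroblasts as host cells; luminescent beta-galactosidase reporter signal from transgenic T. cruzi replicating inside host cells; inhibitors lower the luminescence signal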
[18] = fluconazole-exposed Candida albicans growth modulators – fluorescence, retest, confirmation (AID 2467); assay type: functional, cell-based
[19] = NIH-3T3 fibroblast cytotoxicity, dose response, cytotoxicity control, cell-based, fluorescence, Alamar Blue, secondary assay (AID 2327); assay type: functional;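 note: NIH-3T3 mouse fibroblasts cultured with fluconazole at 8 µg/mL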
[20] = NIH3T3 cell viability loss – ATP luminescence, mouse fibroblasts, counter-screen, dose response (AID 2010); assay type: functional, cell-based;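 note: cells exposed to compound for about 90 hours before reading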
[21] = reduction of Shn3 3'UTR-driven luciferase in osteoblasts – cell-based, Clone20 osteoblasts, firefly luciferase, cherry-picked, dose response (AID 624132); assay type: functional;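 note: firefly luciferase luminescence from reporter carrying the Shn3 3'UTR in osteoblasts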
[22] = Luminescence Cell-Based Dose Retest to Confirm Inhibitors of Cancer Stem Cells. [Related pubchem assays (depositor defined):AID2717, AID2721]; assay type: functional; conditions: Homo sapiens

CCOP(=O)(C#CC(C)(C)C)C1(O)CCCCC1 (configuration not stated)
EC50 (cells [1]): > 350 µM (not active)
EC50 (cells [2]): > 350 µM (not active)

O=C(C1CCCCC1)N1CCCC(c2nc(O)c3nnn(Cc4ccccc4)c3n2)C1 (configuration not stated)
AC50 [3]: 18.5 µM (active)
AC50 [4]: 11.1 µM (active)
AC50 [5]: > 70 µM (inactive)

CCOC(=O)c1cc(-c2ccc(OC)cc2F)nc2c1c(C)nn2CCC#N
IC50 [6]: > 20 µM (inactive)
EC50 [7]: 20.2 µM (active)
EC50 [8]: 17.7 µM (active)
EC50 [9]: 23.3 µM (active)

CC(C)(C)C1=CC=C(C(C)(C)C)C(=O)C1=O
EC50 [10]: > 120 µM (not active)
EC50 (H4): > 120 µM (not active)
EC50 [11]: > 120 µM (not active)
IC50 [12]: 3.86 µM (active)

Cc1ccccc1N1C(=O)C(Cl)=C(N2CCOCC2)C1=O
IC50 (Genome polyprotein): 43.7 µM (active)
AC50 [13]: 13 µM (active)
EC50 (Protein RecA): 4.98 µM (active)

COC(=O)[C@@]12CCCN1[C@H](c1ccc(-c3ccc(F)cc3)c(OC)c1)[C@H]1C(=O)N(C)C(=O)[C@H]12
AC50 [3]: 1.38 µM (active)
AC50 [14]: 25.5 µM (active)
AC50 [4]: 2.93 µM (active)

Cc1ccc(C(=O)NCCSC(C)(C)C)cc1[N+](=O)[O-]
IC50 (Fatty acid synthase [15]): 11.7 µM (active)
IC50 (Fatty acid synthase [16]): 8.25 µM (active)

O=C(Nc1cc(S(=O)(=O)N2CCOCC2)ccc1O)c1ccc2c(c1)S(=O)(=O)c1ccccc1C2=O
IC50 (Genome polyprotein): 49.6 µM (active)

CCc1cccc(NC(=O)C2CCN(S(=O)(=O)c3ccc4c(c3)CC(C)N4C(C)=O)CC2)c1 (configuration not stated)
AC50 [3]: 6.68 µM (active)
AC50 [14]: 10.6 µM (active)
AC50 [4]: 30.3 µM (active)
AC50 [5]: 48.5 µM (active)

CC[C@H](C)Cc1cn([C@@H](CCCN=C(NC(=O)OC(C)(C)C)NC(=O)OC(C)(C)C)C(=O)NCCCCCCCCCCC(=O)N2CCN(C(=O)OC(C)(C)C)CC2)nn1
IC50 [6]: > 20 µM (inactive)
EC50 [17]: 1.04 µM (active)
EC50 [18]: > 38 µM (not active)
EC50 [19]: 83.3 µM (inconclusive)
EC50 [20]: > 30 µM (not active)

CC[C@@]12C(=O)N(c3ccc(OC)cc3)C(=O)N1[C@H](c1ccc(Cl)cc1)[C@@H]1C(=O)N(C3CCCCC3)C(=O)[C@@H]12
AC50 [3]: 0.379 µM (active)
AC50 [14]: 0.607 µM (active)
AC50 [4]: < 0.26 µM (active)
AC50 [5]: 0.407 µM (active)

CC(=O)c1ccc(OCCCC(=O)NNC(=O)c2ccccn2)cc1
IC50 [6]: > 20 µM (inactive)

COc1cc(C(=O)NCCc2nc3ccccc3n2C)cc(OC)c1OC
EC50 (cells [1]): > 350 µM (not active)
EC50 (cells [2]): > 350 µM (not active)

CCNC(=O)c1ccccc1NC(=O)c1cccc(S(=O)(=O)N2CCC(C)CC2)c1
IC50 [6]: > 20 µM (inactive)

O=C(O)CCc1ccc(-c2ccc(Br)cc2)n1-c1ccc(O)cc1
IC50 (Genome polyprotein): > 100 µM (active)

CCn1c(SCC(=O)Nc2nncs2)nnc1-c1ccco1
EC50 (cells [1]): > 350 µM (not active)
EC50 (cells [2]): > 350 µM (not active)

COc1ccc(C(CC(=O)Nc2cc([N+](=O)[O-])ccc2OC)c2ccccc2)cc1 (configuration not stated)
IC50 (Fatty acid synthase [15]): 12.9 µM (active)
IC50 (Fatty acid synthase [16]): 12.5 µM (active)

COc1ccc(C(C2C(=O)CC(C)(C)CC2=O)C2C(=O)CC(C)(C)CC2=O)cc1
IC50 (Genome polyprotein): 30.4 µM (active)

Sc1nnc(COc2cccc3ccccc23)n1Cc1ccccc1
AC50 [21]: 48 µM (active)

CNc1sc(C(=O)c2ccc(F)cc2)c(N)c1-c1nc2ccccc2s1
IC50 [12]: 2.45 µM (active)

Cc1cccc(NC(=O)CSc2nc3c(oc4ccccc43)c(=O)n2-c2ccccc2)c1
IC50 (Fatty acid synthase [15]): 25.6 µM (inactive)
IC50 (Fatty acid synthase [16]): 51.3 µM (inactive)

C/C=C\C=C/C(=O)Nc1cccc(C2=NOC3(C2)C[C@@H](C(N)=O)N(C(=O)c2ccccc2)C3)c1 (some centres not stated)
IC50 [12]: 6.9 µM (not active)

Cc1ccc(-n2nc3c(c2NC(=O)c2ccco2)C[S+]([O-])C3)cc1 (configuration not stated)
AC50 [5]: 7.72 µM (active)

O=C1C(Cl)=C(N2CCCC2)C(=O)N1c1ccccc1F
IC50 (Genome polyprotein): 84.4 µM (active)

COc1ccc(/C=C2/C(=O)NC(=O)N(c3ccc(C)c(C)c3)C2=O)cc1CN1C(=O)c2ccccc2C1=O
IC50 (Genome polyprotein): 99.5 µM (active)

O=C(/C=C/c1cccc([N+](=O)[O-])c1)NCCSCc1ccco1
IC50 (Fatty acid synthase [15]): 6.86 µM (active)
IC50 (Fatty acid synthase [16]): 10.1 µM (active)

Cc1ccc(S(=O)(=O)N(C)C)cc1NC(=O)COc1ccccc1C(=O)Nc1ccccc1
AC50 [3]: 2.56 µM (active)
AC50 [14]: 8.41 µM (active)
AC50 [4]: 1.78 µM (active)
AC50 [5]: 3.87 µM (active)

CCN1C(=O)[C@H]2[C@@H](c3ccc(C)cc3)N3C(=O)N(c4cccc(Br)c4)C(=O)[C@@]3(CC(C)C)[C@H]2C1=O
AC50 [3]: 0.374 µM (active)
AC50 [14]: 0.672 µM (active)
AC50 [4]: 0.26 µM (active)
AC50 [5]: 0.382 µM (active)

CC(C)(C)C1CCC(CN2C(Nc3ccccc3)=NC[C@@H]2Cc2ccccc2)CC1 (some centres not stated)
IC50 [6]: > 20 µM (inactive)
AC50 [22]: 6.47 µM (active)

COc1ccc(S(=O)(=O)Nc2ccc3c(c2)CC(=O)N([C@H](C)CO)C[C@H](C)[C@H](CN(C)S(=O)(=O)c2ccc(F)cc2)O3)cc1
AC50 [14]: 10.6 µM (active)
AC50 [4]: 0.384 µM (active)
